This test addresses T1, collagenase (Homo sapiens, UniProt P03956).
T1 construct: endogenous in cells; host or cells: normal human skin fibroblasts (culture medium)
T1 sequence (P03956 100-469): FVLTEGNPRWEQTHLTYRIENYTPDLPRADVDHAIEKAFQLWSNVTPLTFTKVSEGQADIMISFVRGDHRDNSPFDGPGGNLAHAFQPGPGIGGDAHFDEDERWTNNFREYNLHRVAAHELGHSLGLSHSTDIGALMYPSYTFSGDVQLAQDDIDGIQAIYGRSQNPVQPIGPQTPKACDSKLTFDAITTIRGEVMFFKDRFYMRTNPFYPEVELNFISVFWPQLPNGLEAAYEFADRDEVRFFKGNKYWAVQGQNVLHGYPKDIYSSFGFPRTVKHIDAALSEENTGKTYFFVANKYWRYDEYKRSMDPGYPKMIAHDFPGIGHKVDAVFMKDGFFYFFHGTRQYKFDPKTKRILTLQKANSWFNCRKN
In words: Rate of hydrolysis of substrates by collagenase, assayed by HPLC. It is filed as biochemical. The settings on record: Comparison of Substrate; assayed by HPLC (no chromophore). As to the method:
The following Table I sets forth the relative rates of hydrolysis in the above spectrophotometric assay using the above thiopeptolides as substrates in comparison to the rates of hydrolysis assayed by High Performance Liquid Chromatography (HPLC) of two commercially available substrates for collagenase and two other substrates described in copending Application Ser. No. 450,318, cited hereinbefore.

Non-standard residues stand in square brackets, D forms with d. Residues, ends and D or L forms follow the SMILES beside them. *: point of attachment. Dnp = O=[N+]([O-])c1ccc(*)c([N+](=O)[O-])c1

With `CCOC(=O)CNC(=O)[C@H](C)NC(=O)[C@H](CC(C)C)NC(=O)CNC(=O)[C@H](CC(C)C)NC(=O)[C@@H]1CCCN1C(C)=O` [Ac--Pro--Leu--Gly--Leu--Ala--Gly--OC2 H5] (Ac-PLGLAG-OEt), the “Relative Rate (of hydrolysis)” value is recorded as 110.
The figure for `CCOC(=O)CNC(=O)[C@H](CC(C)C)NC(=O)[C@H](CC(C)C)NC(=O)CNC(=O)[C@H](CC(C)C)NC(=O)[C@@H]1CCCN1C(C)=O` [Ac--Pro--Leu--Gly--Leu--Leu--Gly--OC2 H5] (Ac-PLGLLG-OEt) is 250; for `CC[C@H](C)[C@H](NC(=O)CNC(=O)[C@H](CCC(N)=O)NC(=O)[C@@H]1CCCN1c1ccc([N+](=O)[O-])cc1[N+](=O)[O-])C(=O)N[C@@H](C)C(=O)NCC(=O)N[C@@H](CCC(N)=O)C(=O)N[C@H](CCCNC(=N)N)C(=O)O` [DNP-Pro-Gln-Gly-Ile-Ala-Gly-Gln-D-Arg-OH] (Dnp-PQGIAGQ[dR]-OH) it is 5.
With `CC[C@H](C)[C@H](NC(=O)CNC(=O)[C@H](CC(C)C)NC(=O)[C@@H]1CCCN1c1ccc([N+](=O)[O-])cc1[N+](=O)[O-])C(=O)N[C@@H](C)C(=O)NCC(=O)N[C@@H](CCCNC(=N)N)C(N)=O` [DNP-Pro-Leu-Gly-Ile-Ala-Gly-Arg-NH2] (Dnp-PLGIAGR-NH2), the “Relative Rate (of hydrolysis)” value is listed as 25.

Values taken from patent US4596675A, “Novel thiopeptolide substrates for vertebrate collagenase” (Monsanto Company, priority 1985, dated 1986).
